Key:
[1] = molecular target: human A1 receptor (Homo sapiens (Human), UniProt P30542); test: A1 competition binding assay using Scintillation Proximity technology; selectivity = A1 binding Ki / A2a binding Ki; conditions: A1 binding Ki divided by A2a binding Ki
Method in brief: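 SPA competition using 5 ug membranes from CHO-K1 cells expressing human A1, pretreated with adenosine deaminase. Radioligand was 0.7 nM [3H]DPCPX (final), with compound at 3000–0.15 nM in DPBS + 10 mM MgCl2. Incubation was 1 h at room temperature. Non-specific binding was defined with 1 uM DPCPX, and Ki was derived as for A2a.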

[2] = molecular target: human A2a receptor (Homo sapiens (Human), UniProt P29274); test: A2a competition binding assay using Scintillation Proximity technology
Method in brief: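 Membranes (0.25 or 1 μg) from HEK293 expressing the receptor were pretreated with adenosine deaminase and bound to WGA-coated yttrium silicate SPA beads. They were incubated 1 h at room temperature with compound at 3000–0.15 nM and 0.5 nM tritiated pyrazolotriazolopyrimidine ligand in Ca/Mg-free DPBS with 10 mM MgCl2. Ki was derived from […] by Cheng-Prusoff.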

[3] = * assay run with 1 μg of membranes versus 0.25 μg, HEK293 cells expressing the human A2a receptor
[4] = 0.25 μg of membranes from HEK293 cells expressing the human A2a receptor

Chain of human A1 receptor (P30542 whole entry): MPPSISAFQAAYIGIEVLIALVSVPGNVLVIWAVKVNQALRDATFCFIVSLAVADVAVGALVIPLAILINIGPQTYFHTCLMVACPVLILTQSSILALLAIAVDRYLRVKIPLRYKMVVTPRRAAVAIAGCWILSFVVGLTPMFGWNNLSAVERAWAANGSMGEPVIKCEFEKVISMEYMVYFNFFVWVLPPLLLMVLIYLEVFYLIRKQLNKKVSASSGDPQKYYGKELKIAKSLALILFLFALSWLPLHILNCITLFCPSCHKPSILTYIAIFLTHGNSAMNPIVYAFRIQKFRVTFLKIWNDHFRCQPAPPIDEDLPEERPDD
Chain of human A2a receptor (P29274 whole entry): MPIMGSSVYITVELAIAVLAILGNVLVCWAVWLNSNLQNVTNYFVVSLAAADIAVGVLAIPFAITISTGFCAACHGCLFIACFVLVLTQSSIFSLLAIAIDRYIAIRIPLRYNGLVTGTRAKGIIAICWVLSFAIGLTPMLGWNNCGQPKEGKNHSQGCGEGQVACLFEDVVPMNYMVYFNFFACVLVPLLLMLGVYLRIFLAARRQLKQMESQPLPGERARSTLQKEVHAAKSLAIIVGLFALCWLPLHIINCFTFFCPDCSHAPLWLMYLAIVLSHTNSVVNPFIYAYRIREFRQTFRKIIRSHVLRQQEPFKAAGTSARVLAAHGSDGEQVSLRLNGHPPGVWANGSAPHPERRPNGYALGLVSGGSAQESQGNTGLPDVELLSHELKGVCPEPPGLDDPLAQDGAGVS

**Q.** With `COc1cccc2c(C(=O)NCc3cccc(Cc4ccccc4)n3)nc(N)nc12` [Example 103, 2-amino-N-((6-benzylpyridin-2-yl)methyl)-8-methoxyquinazoline-4-carboxamide] as the molecule, how does the “A2a selectivity (A2a A1 binding selectivity)” value (from here on “A2a selectivity”) [1] read?
**A.** The value was 42.

**Q.** What about the Ki [2, 3] of the same molecule?
**A.** The Ki was 2.5 nM.

**Q.** For `COc1cccc2c(C(=O)NCc3cccc(CSc4nc5ccccc5[nH]4)n3)nc(N)nc12` [Example 56, 2-amino-N-[[6-(1H-benzimidazol-2-ylsulfanylmethyl)-2-pyridyl]methyl]-8-methoxy-quinazoline-4-carboxamide], which “A2a selectivity” value [1] is on record?
**A.** The value was 111.

**Q.** And the Ki [2, 4]?
**A.** Its Ki is 6.3 nM.

**Q.** How did the “A2a selectivity” value [1] turn out when `COc1cccc2c(C(=O)NCc3ncccn3)nc(N)nc12` [Example 38, 2-amino-8-methoxy-N-(pyrimidin-2-ylmethyl)quinazoline-4-carboxamide] was run?
**A.** Its value is 94.

**Q.** What about the Ki [2, 4] of the same molecule?
**A.** The Ki was 43 nM.

**Q.** `COc1cccc2c(C(=O)NCc3cccc(C4CCC4)n3)nc(N)nc12` [Example 6, 2-amino-N-[(6-cyclobutyl-2-pyridyl)methyl]-8-methoxy-quinazoline-4-carboxamide] was tested. Which “A2a selectivity” value [1] did it give?
**A.** Its value is 102.

**Q.** And the Ki [2, 4]?
**A.** The Ki was 0.2 nM.

**Q.** For `COc1cccc2c(C(=O)NCc3cccc4cccnc34)nc(N)nc12` [Example 12, 2-amino-8-methoxy-N-(8-quinolylmethyl)quinazoline-4-carboxamide], which “A2a selectivity” value [1] is on record?
**A.** The value was 32.

**Q.** And the Ki [2, 4]?
**A.** Its Ki is 0.2 nM.

**Q.** Which results are given for `CC1(O)CCN(c2cccc(CNC(=O)c3nc(N)nc4c(F)cccc34)n2)CC1` [Example 79, 2-amino-8-fluoro-N-[[6-(4-hydroxy-4-methyl-1-piperidyl)-2-pyridyl]methyl]quinazoline-4-carboxamide]?
**A.** A2a selectivity (A2a A1 binding selectivity) [1]: 14; Ki [2, 4]: 5.2 nM

**Q.** Which results are given for `COc1cccc2c(C(=O)NCc3cccc(Cc4cccnc4)n3)nc(N)nc12` [Example 104, 2-amino-8-methoxy-N-((6-(pyridin-3-ylmethyl)pyridin-2-yl)methyl)quinazoline-4-carboxamide]?
**A.** A2a selectivity (A2a A1 binding selectivity) [1]: 93; Ki [2, 3]: 5 nM

**Q.** How did the “A2a selectivity” value [1] turn out when `COc1cccc2c(C(=O)NCc3cccc4c3OC(F)(F)O4)nc(N)nc12` [Example 42, 2-amino-N-[(2,2,-difluoro-1,3-benzodioxol-4-yl)methyl]-8-methoxy-quinazoline-4-carboxamide] was run?
**A.** Its value is 39.

**Q.** What about the Ki [2, 3] of the same molecule?
**A.** Its Ki is 5.3 nM.

**Q.** What does the source list for `CC(C)c1nc(CNC(=O)c2nc(N)nc3c(F)cccc23)cs1` [Example 82, 2-amino-8-fluoro-N-[(2-isopropylthiazol-4-yl)methyl]quinazoline-4-carboxamide]?
**A.** A2a selectivity (A2a A1 binding selectivity) [1]: 56; Ki [2, 4]: 0.6 nM

**Q.** Which “A2a selectivity” value [1] does the source give for `COc1cccc2c(C(=O)NCc3cccc(COC4CCCC4)n3)nc(N)nc12` [Example 48, 2-amino-N-[[6-(cyclopentoxymethyl)-2-pyridyl]methyl]-8-methoxy-quinazoline-4-carboxamide] here?
**A.** The value was 447.

**Q.** And the Ki [2, 4]?
**A.** The Ki was 0.5 nM.

**Q.** `COc1cccc2c(C(=O)NCc3cccc(C(C)(O)C(F)(F)F)n3)nc(N)nc12` (centres unmarked) [Example 3, 2-amino-8-methoxy-N-[[6-(2,2,2-trifluoro-1-hydroxy-1-methyl-ethyl)-2-pyridyl]methyl]quinazoline-4-carboxamide] was tested. Which “A2a selectivity” value [1] did it give?
**A.** The value was 600.

**Q.** And the Ki [2, 4]?
**A.** The Ki was 0.5 nM.

**Q.** Which “A2a selectivity” value [1] does the source give for `Cc1ccc(F)c(CNC(=O)c2nc(N)nc3c(F)cccc23)n1` [Example 76, 2-amino-8-fluoro-N-[(3-fluoro-6-methyl-2-pyridyl)methyl]quinazoline-4-carboxamide] here?
**A.** Its value is 115.

**Q.** What about the Ki [2, 4] of the same molecule?
**A.** Its Ki is 0.5 nM.

**Q.** For `CSc1cccc2c(C(=O)NCc3cccc4cccnc34)nc(N)nc12` [Example 94, 2-amino-8-methylsulfanyl-N-(8-quinolylmethyl)quinazoline-4-carboxamide], which “A2a selectivity” value [1] is on record?
**A.** Its value is 11.

**Q.** And the Ki [2, 3]?
**A.** Its Ki is 7.7 nM.

**Q.** For `COC(=O)c1ccccc1CNC(=O)c1nc(N)nc2c(F)cccc12` [Example 74, methyl 2-[[(2-amino-8-fluoro-quinazoline-4-carbonyl)amino]methyl]benzoate], which “A2a selectivity” value [1] is on record?
**A.** Its value is 18.

**Q.** And the Ki [2, 3]?
**A.** Its Ki is 2.5 nM.

**Q.** For `Nc1nc(C(=O)NCC23CC4CC(CC(C4)C2)C3)c2cccc(F)c2n1` [Example 85, N-(1-adamantylmethyl)-2-amino-8-fluoro-quinazoline-4-carboxamide], which “A2a selectivity” value [1] is on record?
**A.** The value was 4.

**Q.** And the Ki [2, 4]?
**A.** The Ki was 6.4 nM.

**Q.** Which “A2a selectivity” value [1] does the source give for `COc1cccc2c(C(=O)NCc3cccc(F)n3)nc(N)nc12` [Example 27, 2-amino-N-[(6-fluoro-2-pyridyl)methyl]-8-methoxy-quinazoline-4-carboxamide] here?
**A.** Its value is 148.

**Q.** What about the Ki [2, 4] of the same molecule?
**A.** The Ki was 1.5 nM.

**Q.** With `Nc1nc(C(=O)NCc2cccc3cncn23)c2cccc(F)c2n1` [Example 80, 2-amino-8-fluoro-N-(imidazo[1,5-a]pyridin-5-ylmethyl)quinazoline-4-carboxamide] as the molecule, how does the “A2a selectivity” value [1] read?
**A.** The value was 21.

**Q.** And the Ki [2, 3]?
**A.** The Ki was 6.2 nM.

**Q.** `COc1cccc2c(C(=O)NCc3cccc(COc4cccc(F)c4)n3)nc(N)nc12` [Example 54, 2-amino-N-[[6-[(3-fluorophenxoy)methyl]-2-pyridyl]methyl]-8-methoxy-quinazoline-4-carboxamide] was tested. Which “A2a selectivity” value [1] did it give?
**A.** The value was 49.

**Q.** What about the Ki [2, 3] of the same molecule?
**A.** The Ki was 2.1 nM.

**Q.** What does the source list for `Nc1nc(C(=O)NCc2cccc3cccnc23)c2cccc(OC(F)(F)F)c2n1` [Example 101, 2-amino-N-(8-quinolylmethyl)-8-(trifluoromethoxy)quinazoline-4-carboxamide]?
**A.** A2a selectivity (A2a A1 binding selectivity) [1]: 88; Ki [2, 4]: 0.2 nM

**Q.** `COc1cccc2c(C(=O)NCc3cccc(COCC4CCCC4)n3)nc(N)nc12` [Example 49, 2-amino-N-[[6-(cyclopentylmethoxy-methyl)-2-pyridyl]methyl]-8-methoxy-quinazoline-4-carboxamide] was tested. Which “A2a selectivity” value [1] did it give?
**A.** Its value is 251.

**Q.** And the Ki [2, 4]?
**A.** The Ki was 0.5 nM.

**Q.** Which results are given for `COc1cccc2c(C(=O)NCc3ncc(C)cc3C)nc(N)nc12` [Example 28, 2-amino-N-[(3,5-dimethyl-2-pyridyl)methyl]-8-methoxy-quinazoline-4-carboxamide]?
**A.** A2a selectivity (A2a A1 binding selectivity) [1]: 117; Ki [2, 4]: 1.5 nM

**Q.** Which “A2a selectivity” value [1] does the source give for `COc1cccc2c(C(=O)NCc3nc(C(C)(C)O)ccc3C)nc(N)nc12` [Example 2, 2-amino-N-[[6-(1-hydroxy-1-methyl-ethyl)-3-methyl-2-pyridyl]methyl]-8-methoxy-quinazoline-4-carboxamide] here?
**A.** The value was 193.

**Q.** What about the Ki [2, 4] of the same molecule?
**A.** Its Ki is 0.6 nM.

Reference: patent US10138212B2, “Aminoquinazoline compounds as A2A antagonist” (Merck Sharp & Dohme Corp., priority 2015, dated 2018)
